Laboratory results reported in patent US10206907B2, “Compounds useful for the treatment of degenerative and inflammatory diseases” (GALAPAGOS NV, priority 2008, dated 2019).

Legend:
[1] = Microsomal stability, rat liver microsomes; format: in vitro ADME; settings: percentage of compound remaining after 60 minutes, 3 μM compound
Description: (§1) 40 μL of deionised water was added to a well of a polypropylene Matrix 2D barcode labelled storage tube (Thermo Scientific) and pre-incubated at 37° C.
(§2) A co-factor containing MgCl2, glucose-6-phosphate and NADP+ was prepared in deionised water and placed on ice before use.
(§3) A final working solution containing liver microsomes (Xenotech of a species of interest (human, mouse, rat, dog), previously described G6PDH and co-factors was prepared and this mix was incubated for no longer than 20 minutes at room temperature.
(§4) 30 μL of the pre-heated compound dilution was added to 40 μL of pre-heated water in the Matrix tubes and 30 μL of the microsomal mix was added.
(§5) To measure percentage remaining of compound at time zero MeOH or ACN was added (1:1) to the well before adding the microsomal mix.
(§6) The samples which were not stopped are incubated at 37° C., 300 rpm and after 1 hour of incubation the reaction was stopped with MeOH or ACN (1:1).
(§7) After stopping the reaction the samples were mixed and placed on ice for 30 min to precipitate the proteins.
(§8) The samples were analyzed on LCMS with a flow rate of 1 mL/min. Solvent A was 15 mM ammonia and solvent B was methanol or acetonitrile, depending on the stop solution used. […] The percentage remaining after 1 hour incubation was calculated from time 0 and was calculated as the percentage remaining.
(§9) The data on microsomal stability are expressed as a percentage of the total amount of compound remaining after 60 minutes.

[2] = Microsomal stability, human liver microsomes; format: in vitro ADME; settings: percentage of compound remaining after 60 minutes, 3 μM compound
Description: as §1, §2, §3, §4, §5, §6, §7, §8, §9

[3] = molecular target: Recombinant human JAK1 catalytic domain (Homo sapiens (Human), UniProt P23458); assay: JAK1 inhibition assay; format: biochemical; settings: semi-quantitative score
Procedure, shortened: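 Radiometric assay read by scintillation counting after phosphoric-acid washes. Percent inhibition calculated from cpm relative to vehicle and 10 μM staurosporine control. IC50 derived from compound dose-dilution series.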

MMP13 in SW1353 cells = assay: OSM/IL-1β signaling assay (MMP13 levels in SW1353 cells); format: cell-based; settings: Homo sapiens; SW1353 cells, OSM and IL-1β triggered, MMP13 levels 48 hours after triggering; read-out: MMP13 EC50;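 further: secreted MMP13 captured by antibody, activated with APMA and its activity read by fluorescence, inhibition scaled between vehicle-treated triggered wells (0%) and untriggered wells (100%)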
Description: The cells were seeded in 96 well plates at 15,000 cells/well in a volume of 120 μL DMEM (Invitrogen) containing 10% (v/v) FBS and 1% penicillin/streptomycin (InVitrogen) incubated at 37° C. […] MMP13 activity was measured using an antibody capture activity assay. […] Next the wells were washed twice with PBS+0.05% Tween followed by MMP13 activation by addition of 35 μL of a 1.5 mM 4-Aminophenylmercuric acetate (APMA) (Sigma, A9563) solution and incubation at 37° C. for 1 hour. […] Percentage inhibition=((fluorescence determined in the presence of vehicle−fluorescence determined for sample with test compound present) divided by (fluorescence determined in the presence of vehicle−fluorescence determined for sample without trigger))*100%.

[4] = test system: JAK-STAT signalling in HeLa cells; assay: JAK-STAT signalling assay (OSM-triggered pSTAT1(2)-luciferase reporter in HeLa cells); format: cell-based; settings: Homo sapiens; HeLa cells, OSM-triggered pSTAT1(2)-luciferase reporter; read-out: STAT signalling EC50
Procedure, shortened: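 HeLa cells transiently transfected with pSTAT1(2)-luciferase reporter plus LacZ internal control, incubated overnight at 37 °C, 10% CO2, then OSM-stimulated with compound. Luciferase read by Steadylite luminescence and normalised to β-galactosidase (ONPG); percent inhibition from controls, EC50 from dose-response.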

[5] = molecular target: Recombinant human JAK2 catalytic domain (Homo sapiens (Human), UniProt O60674); assay: JAK2 inhibition assay; format: biochemical; settings: semi-quantitative score
Procedure, shortened: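 Radiometric kinase reactions ran for 90 min at 30 °C and were stopped with phosphoric acid, then washed and counted by scintillation. Percent inhibition was set relative to vehicle and to 10 μM staurosporine background. IC50 was derived from dose-dilution series.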

Chain of Recombinant human JAK1 catalytic domain (P23458 850-1154): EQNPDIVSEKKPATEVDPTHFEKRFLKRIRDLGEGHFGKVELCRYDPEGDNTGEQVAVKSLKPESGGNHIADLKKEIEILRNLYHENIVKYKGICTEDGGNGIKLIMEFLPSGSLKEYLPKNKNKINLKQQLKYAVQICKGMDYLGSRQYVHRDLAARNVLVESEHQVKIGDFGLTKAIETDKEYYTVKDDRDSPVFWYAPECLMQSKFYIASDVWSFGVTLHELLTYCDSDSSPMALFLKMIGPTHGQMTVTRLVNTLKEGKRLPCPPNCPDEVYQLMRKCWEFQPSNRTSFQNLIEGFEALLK
Chain of Recombinant human JAK2 catalytic domain (O60674 808-1132): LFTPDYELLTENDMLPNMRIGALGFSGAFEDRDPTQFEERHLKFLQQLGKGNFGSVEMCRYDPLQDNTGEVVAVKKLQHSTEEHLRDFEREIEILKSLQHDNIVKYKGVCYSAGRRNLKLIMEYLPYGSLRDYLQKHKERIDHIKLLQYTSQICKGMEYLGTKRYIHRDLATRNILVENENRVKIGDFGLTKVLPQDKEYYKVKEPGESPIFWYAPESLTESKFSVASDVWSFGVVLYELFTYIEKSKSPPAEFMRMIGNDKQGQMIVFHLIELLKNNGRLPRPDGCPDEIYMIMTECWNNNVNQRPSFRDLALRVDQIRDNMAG

With `O=C(Nc1ccncc1)c1ccc(-c2cccc3nc(NC(=O)C4CC4)nn23)cc1` [Compound 25, 4-(2-(cyclopropanecarboxamido)-[1,2,4]triazolo[1,5-a]pyridin-5-yl)-N-(pyridin-4-yl)benzamide] the “Microsomal Stability Rat (%)” value [1] was “* (* 0-25)”, the “Microsomal Stability Human (%)” value [2] was “* (* 0-25)” and the IC50 [3] was less than 100 nM. For the same compound, the EC50 (MMP13 in SW1353 cells) was greater than 1000 nM and the EC50 [4] was greater than 1000 nM.

In the case of `O=C(Nc1nc2cccc(-c3ccc(NS(=O)(=O)c4cccnc4)cc3)n2n1)C1CC1` [Compound 64, N-(5-(4-(pyridine-3-sulfonamido)phenyl)-[1,2,4]triazolo[1,5-a]pyridin-2-yl)cyclopropanecarboxamide], the “Microsomal Stability Rat (%)” value [1] is reported as “*** (*** 51-75)”, the “Microsomal Stability Human (%)” value [2] is reported as “**** (**** 76-100)” and the IC50 [3] is reported as less than 100 nM. For the same compound, the EC50 (MMP13 in SW1353 cells) was greater than 1000 nM and the EC50 [4] was greater than 1000 nM.

With `O=C(Nc1nc2cccc(-c3ccc(C(=O)N4CCCCC4)cc3F)n2n1)C1CC1` [Compound 89, N-(5-(2-fluoro-4-(piperidine-1-carbonyl)phenyl)-[1,2,4]triazolo[1,5-a]pyridin-2-yl)cyclopropanecarboxamide] the “Microsomal Stability Rat (%)” value [1] was “* (* 0-25)”, the “Microsomal Stability Human (%)” value [2] was “*** (*** 51-75)” and the IC50 [3] was less than 100 nM. For the same compound, the EC50 (MMP13 in SW1353 cells) was greater than 1000 nM and the EC50 [4] was greater than 1000 nM.

In the case of `O=C(Nc1nc2cccc(-c3ccc(C(=O)N4CCN(c5cccc(Cl)c5)CC4)cc3)n2n1)C1CC1` [Compound 113], the “Microsomal Stability Rat (%)” value [1] is reported as “*** (*** 51-75)”, the “Microsomal Stability Human (%)” value [2] is reported as “** (** 26-50)” and the IC50 [3] is reported as less than 100 nM. For the same compound, the EC50 (MMP13 in SW1353 cells) was greater than 1000 nM and the EC50 [4] was greater than 1000 nM.

With `CN(C(=O)COc1ccc(-c2cccc3nc(NC(=O)C4CC4)nn23)cc1)c1ccccc1` [Compound 118, N-(5-(4-(2-(methyl(phenyl)amino)-2-oxoethoxy)phenyl)-[1,2,4]triazolo[1,5-a]pyridin-2-yl)cyclopropanecarboxamide] the “Microsomal Stability Rat (%)” value [1] was “* (* 0-25)”, the “Microsomal Stability Human (%)” value [2] was “* (* 0-25)” and the IC50 [3] was less than 100 nM. For the same compound, the EC50 (MMP13 in SW1353 cells) was greater than 1000 nM and the EC50 [4] was greater than 1000 nM.

For `O=C(N[C@@H]1CCN(Cc2ccccc2)C1)c1ccc(-c2cccc3nc(NC(=O)C4CC4)nn23)cc1` [Compound 120, (R)-N-(1-benzylpyrrolidin-3-yl)-4-(2-(cyclopropanecarboxamido)-[1,2,4]triazolo[1,5-a]pyridin-5-yl)benzamide], the “Microsomal Stability Rat (%)” value [1] was “* (* 0-25)”, the “Microsomal Stability Human (%)” value [2] was “* (* 0-25)” and the IC50 [3] was less than 100 nM. The EC50 (MMP13 in SW1353 cells) was greater than 1000 nM and the EC50 [4] was greater than 1000 nM.

With `O=C(Nc1nc2cccc(-c3ccc(NS(=O)(=O)CCOc4ccccc4)cc3)n2n1)C1CC1` [Compound 122, N-(5-(4-(2-phenoxyethylsulfonamido)phenyl)-[1,2,4]triazolo[1,5-a]pyridin-2-yl)cyclopropanecarboxamide] the “Microsomal Stability Rat (%)” value [1] was “* (* 0-25)”, the “Microsomal Stability Human (%)” value [2] was “* (* 0-25)” and the IC50 [3] was less than 100 nM. It also gave an EC50 (MMP13 in SW1353 cells) greater than 1000 nM and an EC50 [4] greater than 1000 nM.

With `O=C(Nc1nc2cccc(-c3ccc(NCCc4ccccc4)nc3)n2n1)C1CC1` [Compound 123, N-(5-(6-(phenethylamino)pyridin-3-yl)-[1,2,4]triazolo[1,5-a]pyridin-2-yl)cyclopropanecarboxamide] the “Microsomal Stability Rat (%)” value [1] was “* (* 0-25)”, the “Microsomal Stability Human (%)” value [2] was “* (* 0-25)” and the IC50 [3] was less than 100 nM. The EC50 (MMP13 in SW1353 cells) was greater than 1000 nM and the EC50 [4] was greater than 1000 nM.

For `O=C(NCCc1cccnc1)c1ccc(-c2cccc3nc(NC(=O)C4CC4)nn23)cc1` [Compound 124, 4-(2-(cyclopropanecarboxamido)-[1,2,4]triazolo[1,5-a]pyridin-5-yl)-N-(2-(pyridin-3-yl)ethyl)benzamide], the “Microsomal Stability Rat (%)” value [1] was “* (* 0-25)”, the “Microsomal Stability Human (%)” value [2] was “* (* 0-25)” and the IC50 [3] was less than 100 nM. The EC50 (MMP13 in SW1353 cells) was greater than 1000 nM and the EC50 [4] was greater than 1000 nM.

With `CC1CC(C)CN(C(=O)c2ccc(-c3cccc4nc(NC(=O)C5CC5)nn34)cc2)C1` (centres unmarked) [Compound 134] the “Microsomal Stability Rat (%)” value [1] was “** (** 26-50)”, the “Microsomal Stability Human (%)” value [2] was “*** (*** 51-75)” and the IC50 [3] was less than 100 nM. It also gave an EC50 (MMP13 in SW1353 cells) greater than 1000 nM and an EC50 [4] of 501 to 1000 nM.

For `O=C(Nc1nc2cccc(-c3ccc(C(=O)N4CCC(F)CC4)cc3)n2n1)C1CC1` [Compound 137, N-(5-(4-(4-fluoropiperidine-1-carbonyl)phenyl)-[1,2,4]triazolo[1,5-a]pyridin-2-yl)cyclopropanecarboxamide], the “Microsomal Stability Rat (%)” value [1] was “**** (**** 76-100)”, the “Microsomal Stability Human (%)” value [2] was “*** (*** 51-75)” and the IC50 [3] was less than 100 nM. It also gave an EC50 (MMP13 in SW1353 cells) greater than 1000 nM and an EC50 [4] of 501 to 1000 nM.

With `O=C(Nc1nc2cccc(-c3ccc(C(=O)N4CCC(c5cc6ccccc6[nH]5)CC4)cc3)n2n1)C1CC1` [Compound 138] the “Microsomal Stability Rat (%)” value [1] was “*** (*** 51-75)”, the “Microsomal Stability Human (%)” value [2] was “** (** 26-50)” and the IC50 [3] was less than 100 nM. For the same compound, the EC50 (MMP13 in SW1353 cells) was greater than 1000 nM and the EC50 [4] was 101 to 500 nM.

For `CC1CCCCN1C(=O)c1ccc(-c2cccc3nc(NC(=O)C4CC4)nn23)cc1` (centres unmarked) [Compound 144, N-(5-(4-(2-methylpiperidine-1-carbonyl)phenyl)-[1,2,4]triazolo[1,5-a]pyridin-2-yl)cyclopropanecarboxamide], the “Microsomal Stability Rat (%)” value [1] was “* (* 0-25)”, the “Microsomal Stability Human (%)” value [2] was “** (** 26-50)” and the IC50 [3] was less than 100 nM. The EC50 (MMP13 in SW1353 cells) was greater than 1000 nM and the EC50 [4] was greater than 1000 nM.

In the case of `CN(C)CCN(Cc1ccccc1)C(=O)c1ccc(-c2cccc3nc(NC(=O)C4CC4)nn23)cc1` [Compound 150, N-benzyl-4-(2-(cyclopropanecarboxamido)-[1,2,4]triazolo[1,5-a]pyridin-5-yl)-N-(2-(dimethylamino)ethyl)benzamide], the “Microsomal Stability Rat (%)” value [1] is reported as “* (* 0-25)”, the “Microsomal Stability Human (%)” value [2] is reported as “*** (*** 51-75)” and the IC50 [3] is reported as less than 100 nM. It also gave an EC50 (MMP13 in SW1353 cells) greater than 1000 nM and an EC50 [4] greater than 1000 nM.

In the case of `O=C(Nc1nc2cccc(-c3ccc(OCc4ccc(-c5cn[nH]c5)nc4)cc3)n2n1)C1CC1` [Compound 166], the “Microsomal Stability Rat (%)” value [1] is reported as “* (* 0-25)”, the “Microsomal Stability Human (%)” value [2] is reported as “*** (*** 51-75)” and the IC50 [3] is reported as less than 100 nM. The EC50 (MMP13 in SW1353 cells) was greater than 1000 nM and the EC50 [4] was greater than 1000 nM.

With `O=C(Nc1nc2cccc(-c3ccc(C(=O)N4CCCC(c5ccccc5)C4)cc3)n2n1)C1CC1` (centres unmarked) [Compound 169, N-(5-(4-(3-phenylpiperidine-1-carbonyl)phenyl)-[1,2,4]triazolo[1,5-a]pyridin-2-yl)cyclopropanecarboxamide] the “Microsomal Stability Rat (%)” value [1] was “* (* 0-25)”, the “Microsomal Stability Human (%)” value [2] was “* (* 0-25)” and the IC50 [3] was less than 100 nM. It also gave an EC50 (MMP13 in SW1353 cells) greater than 1000 nM and an EC50 [4] greater than 1000 nM.

For `N#CC1(C(=O)Nc2ccc(-c3cccc4nc(NC(=O)C5CC5)nn34)cc2)CC1` [Compound 177, 1-cyano-N-(4-(2-(cyclopropanecarboxamido)-[1,2,4]triazolo[1,5-a]pyridin-5-yl)phenyl)cyclopropanecarbox-amide], the “Microsomal Stability Rat (%)” value [1] was “**** (**** 76-100)”, the “Microsomal Stability Human (%)” value [2] was “**** (**** 76-100)” and the IC50 [3] was less than 100 nM. The EC50 (MMP13 in SW1353 cells) was greater than 1000 nM and the EC50 [4] was greater than 1000 nM.

For `Cn1cc(-c2ccc(COc3ccc(-c4cccc5nc(NC(=O)C6CC6)nn45)cc3)cn2)cn1` [Compound 178], the “Microsomal Stability Rat (%)” value [1] was “** (** 26-50)”, the “Microsomal Stability Human (%)” value [2] was “* (* 0-25)” and the IC50 [3] was less than 100 nM. For the same compound, the EC50 (MMP13 in SW1353 cells) was greater than 1000 nM and the EC50 [4] was greater than 1000 nM.

For `O=C(Nc1cccnc1)c1ccc(-c2cccc3nc(NC(=O)C4CC4)nn23)cc1` [Compound 206, 4-[2-(Cyclopropanecarbonyl-amino)-[1,2,4]triazolo[1,5-a]pyridin-5-yl]-N-pyridin-3-yl-benzamide], the “Microsomal Stability Rat (%)” value [1] was “*** (*** 51-75)”, the “Microsomal Stability Human (%)” value [2] was “**** (**** 76-100)” and the IC50 [3] was less than 100 nM. It also gave an IC50 [5] of 101 to 500 nM and an EC50 [4] greater than 1000 nM.
